Paper PMC9145702, “Design, Synthesis and Evaluation of Fused Bicyclo[2.2.2]octene as a Potential Core Scaffold for the Non-Covalent Inhibitors of SARS-CoV-2 3CL^pro Main Protease” (Pharmaceuticals, 2022)
Like-named read-outs stand apart in the source and are kept apart here.

Legend:
[1] = molecular target: SARS-CoV-2 3CL^pro main protease (Severe acute respiratory syndrome coronavirus 2, UniProt P0DTD1); assay: FRET-based assay of SARS-CoV-2 3CL^pro main protease inhibition activity; format: biochemical; conditions: for screening result after accounting for effect on measured fluorescence: 64 μM, difference between 3CL(+) and 3CL(-) fluorescence; for first screening result (hit candidate): first FRET screening at 64 μM of each compound, before accounting for compound effect on fluorescence
[2] = test system: 3CL^pro; set-up: method as in PMID 33817567; conditions: compared with 11a; read-out: inhibition activity; cited from earlier work

Row | SMILES | melting point | further results
1 | O=C(NC12C=CC(c3ccccc3)(C3C(=O)N(NC(=O)c4ccccn4)C(=O)C31)C1C(=O)N(NC(=O)c3ccccn3)C(=O)C12)c1ccccc1 (stereo not drawn) [11a, N-[8-Phenyl-2,3,3a,4a,5,6,7,7a,8,8a-decahydro-1,3,5,7-tetraoxo-2,6-bis(2-pyridylcarboamino)-4,8-ethenobenzo[1,2-c:4,5-c′]dipyrrol-4(1H)-yl]benzamide] | 263 to 265 °C | screening result after accounting for effect on measured fluorescence [1]: remained as hit candidates; IC50 ([1]; FRET assay, isolated SARS-CoV-2 3CL^pro, compound concentrations 200, 100, 50 and 25 μM): 102 µM; first screening result (hit candidate) [1]: candidate hit compounds
2 | O=C(NN1C(=O)C2C(C1=O)C1(c3ccccc3)C=CC2(NC(=O)c2ccccc2)C2C(=O)N(NC(=O)c3cccnc3)C(=O)C21)c1cccnc1 (stereo not drawn) [11b, N-[8-Phenyl-2,3,3a,4a,5,6,7,7a,8,8a-decahydro-1,3,5,7-tetraoxo-2,6-bis(3-pyridylcarboamino)-4,8-ethenobenzo[1,2-c:4,5-c′]dipyrrol-4(1H)-yl]benzamide] | 278 to 282 °C | –
3 | O=C(NN1C(=O)C2C(C1=O)C1(c3ccccc3)C=CC2(NC(=O)c2ccccc2)C2C(=O)N(NC(=O)c3ccncc3)C(=O)C21)c1ccncc1 (stereo not drawn) [11c, N-[8-Phenyl-2,3,3a,4a,5,6,7,7a,8,8a-decahydro-1,3,5,7-tetraoxo-2,6-bis(4-pyridylcarboamino)-4,8-ethenobenzo[1,2-c:4,5-c′]dipyrrol-4(1H)-yl]benzamide] | 289 to 293 °C | –
4 | CC1=CC2(c3ccccc3)C3C(=O)N(NC(=O)c4ccccn4)C(=O)C3C1(NC(=O)c1ccccc1)C1C(=O)N(NC(=O)c3ccccn3)C(=O)C12 (stereo not drawn) [11d, N-[8-Phenyl-2,3,3a,4a,5,6,7,7a,8,8a-decahydro-10-methyl-1,3,5,7-tetraoxo-2,6-bis(2-pyridylcarboamino)-4,8-ethenobenzo[1,2-c:4,5-c′]dipyrrol-4(1H)-yl]benzamide] | 271 to 274 °C | –
5 | CC1=CC2(c3ccccc3)C3C(=O)N(NC(=O)c4cccnc4)C(=O)C3C1(NC(=O)c1ccccc1)C1C(=O)N(NC(=O)c3cccnc3)C(=O)C12 (stereo not drawn) [11e, N-[8-Phenyl-2,3,3a,4a,5,6,7,7a,8,8a-decahydro-10-methyl-1,3,5,7-tetraoxo-2,6-bis(3-pyridylcarboamino)-4,8-ethenobenzo[1,2-c:4,5-c′]dipyrrol-4(1H)-yl]benzamide] | 345 to 347 °C (dec.) | IC50 [1]: ~200 µM; screening result after accounting for effect on measured fluorescence [1]: remained as hit candidates; first screening result (hit candidate) [1]: candidate hit compounds
6 | O=C(NC12C=CC(c3cccs3)(C3C(=O)N(NC(=O)c4ccccn4)C(=O)C31)C1C(=O)N(NC(=O)c3ccccn3)C(=O)C12)c1ccccc1 (stereo not drawn) [11f, N-[2,3,3a,4a,5,6,7,7a,8,8a-Decahydro-1,3,5,7-tetraoxo-2,6-bis(2-pyridylcarboamino)-8-(2-thienyl)-4,8-ethenobenzo[1,2-c:4,5-c′]dipyrrol-4(1H)-yl]benzamide] | 288 to 291 °C (dec.) | first screening result (hit candidate) [1]: candidate hit compounds
7 | O=C(NN1C(=O)C2C(C1=O)C1(c3cccs3)C=CC2(NC(=O)c2ccccc2)C2C(=O)N(NC(=O)c3cccnc3)C(=O)C21)c1cccnc1 (stereo not drawn) [11g, N-[2,3,3a,4a,5,6,7,7a,8,8a-Decahydro-1,3,5,7-tetraoxo-2,6-bis(3-pyridylcarboamino)-8-(2-thienyl)-4,8-ethenobenzo[1,2-c:4,5-c′]dipyrrol-4(1H)-yl]benzamide] | 259 to 262 °C (dec.) | –
8 | O=C(NN1C(=O)C2C(C1=O)C1(c3cccs3)C=CC2(NC(=O)c2ccccc2)C2C(=O)N(NC(=O)c3ccncc3)C(=O)C21)c1ccncc1 (stereo not drawn) [11h, N-[2,3,3a,4a,5,6,7,7a,8,8a-Decahydro-1,3,5,7-tetraoxo-2,6-bis(4-pyridylcarboamino)-8-(2-thienyl)-4,8-ethenobenzo[1,2-c:4,5-c′]dipyrrol-4(1H)-yl]benzamide] | 310 to 312 °C | –
9 | O=C(NC12C=CC(c3ccco3)(C3C(=O)N(NC(=O)c4ccccn4)C(=O)C31)C1C(=O)N(NC(=O)c3ccccn3)C(=O)C12)c1ccccc1 (stereo not drawn) [11i, N-[8-(2-Furyl)-2,3,3a,4a,5,6,7,7a,8,8a-decahydro-1,3,5,7-tetraoxo-2,6-bis(2-pyridylcarboamino)-4,8-ethenobenzo[1,2-c:4,5-c′]dipyrrol-4(1H)-yl]benzamide] | 332 to 334 °C | first screening result (hit candidate) [1]: candidate hit compounds
10 | O=C(NN1C(=O)C2C(C1=O)C1(c3ccco3)C=CC2(NC(=O)c2ccccc2)C2C(=O)N(NC(=O)c3cccnc3)C(=O)C21)c1cccnc1 (stereo not drawn) [11j, N-[8-(2-Furyl)-2,3,3a,4a,5,6,7,7a,8,8a-decahydro-1,3,5,7-tetraoxo-2,6-bis(3-pyridylcarboamino)-4,8-ethenobenzo[1,2-c:4,5-c′]dipyrrol-4(1H)-yl]benzamide] | 272 to 276 °C | –
11 | O=C(NN1C(=O)C2C(C1=O)C1(c3ccco3)C=CC2(NC(=O)c2ccccc2)C2C(=O)N(NC(=O)c3ccncc3)C(=O)C21)c1ccncc1 (stereo not drawn) [11k, N-[8-(2-Furyl)-2,3,3a,4a,5,6,7,7a,8,8a-decahydro-1,3,5,7-tetraoxo-2,6-bis(4-pyridylcarboamino)-4,8-ethenobenzo[1,2-c:4,5-c′]dipyrrol-4(1H)-yl]benzamide] | 309 to 311 °C | –
12 | COc1ccc(C2=CC3(NC(=O)c4ccccc4)C4C(=O)N(NC(=O)c5ccccn5)C(=O)C4C2(C)C2C(=O)N(NC(=O)c4ccccn4)C(=O)C23)cc1 (stereo not drawn) [11l, N-[2,3,3a,4a,5,6,7,7a,8,8a-Decahydro-8-methyl-9-(4-methoxyphenyl)-1,3,5,7-tetraoxo-2,6-bis(2-pyridylcarboamino)-4,8-ethenobenzo[1,2-c:4,5-c′]dipyrrol-4(1H)-yl]benzamide] | 298 to 303 °C (dec.) | –
13 | COc1ccc(C2=CC3(NC(=O)c4ccccc4)C4C(=O)N(NC(=O)c5cccnc5)C(=O)C4C2(C)C2C(=O)N(NC(=O)c4cccnc4)C(=O)C23)cc1 (stereo not drawn) [11m, N-[2,3,3a,4a,5,6,7,7a,8,8a-Decahydro-8-methyl-9-(4-methoxyphenyl)-1,3,5,7-tetraoxo-2,6-bis(3-pyridylcarboamino)-4,8-ethenobenzo[1,2-c:4,5-c′]dipyrrol-4(1H)-yl]benzamide] | 365 to 369 °C (dec.) | –
14 | COc1ccc(C2=CC3(NC(=O)c4ccccc4)C4C(=O)N(NC(=O)c5ccncc5)C(=O)C4C2(C)C2C(=O)N(NC(=O)c4ccncc4)C(=O)C23)cc1 (stereo not drawn) [11n, N-[2,3,3a,4a,5,6,7,7a,8,8a-Decahydro-8-methyl-9-(4-methoxyphenyl)-1,3,5,7-tetraoxo-2,6-bis(4-pyridylcarboamino)-4,8-ethenobenzo[1,2-c:4,5-c′]dipyrrol-4(1H)-yl]benzamide] | 387 to 390 °C (dec.) | –
15 | C/C(=N\NC(=O)c1cccnc1)C1=CC2(NC(=O)c3ccccc3)C3C(=O)N(NC(=O)c4cccnc4)C(=O)C3C1(C)C1C(=O)N(NC(=O)c3cccnc3)C(=O)C12 (stereo not drawn) [11o, N-[2,3,3a,4a,5,6,7,7a,8,8a-Decahydro-8-methyl-1,3,5,7-tetraoxo-2,6-bis(3-pyridyl-carboamino)-9-(1-(N-[3-pyridylcarbo]hydrazonyl)eth-1-yl)-4,8-ethenobenzo[1,2-c:4,5-c′]dipyrrol-4(1H)-yl]benzamide] | 284 to 286 °C | –
16 | Cc1c(O)cccc1C(=O)N[C@@H](CSc1ccccc1)[C@H](O)CN1C[C@H]2CCCC[C@H]2C[C@H]1C(=O)NC(C)(C)C [nelfinavir] | – | IC50 [2]: ~40 µM
